Assay results taken from US20080207527A1, “Bicyclic Compounds Which Inhibit Beta-Secretase Activity and Methods of Use Thereof” (CoMentis, Inc., priority 2004, published 2008).

What was measured:
memapsin 1 = target: T1, memapsin 1 (Homo sapiens, UniProt Q9Y5Z0); assay: Inhibition of memapsin 1 beta-secretase activity (substrate peptide hydrolysis, MALDI-TOF); type: biochemical; conditions: pH 4.1, 37 degrees C., read-out: M1 Ki
T1 sequence (Q9Y5Z0 63-518): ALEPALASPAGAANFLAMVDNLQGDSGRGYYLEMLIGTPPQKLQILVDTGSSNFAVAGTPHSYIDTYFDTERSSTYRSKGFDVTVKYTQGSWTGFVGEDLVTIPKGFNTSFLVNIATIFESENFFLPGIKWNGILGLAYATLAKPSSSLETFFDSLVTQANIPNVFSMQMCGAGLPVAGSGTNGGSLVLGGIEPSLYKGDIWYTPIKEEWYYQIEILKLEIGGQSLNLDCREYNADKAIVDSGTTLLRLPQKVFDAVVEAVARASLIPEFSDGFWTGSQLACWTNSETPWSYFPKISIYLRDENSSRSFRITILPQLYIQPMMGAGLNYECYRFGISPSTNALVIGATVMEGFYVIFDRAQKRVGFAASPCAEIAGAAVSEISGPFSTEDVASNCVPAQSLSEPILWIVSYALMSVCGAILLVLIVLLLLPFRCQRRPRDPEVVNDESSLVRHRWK

Cathepsin D = Cathepsin D (Homo sapiens, UniProt P07339); assay: Inhibition of cathepsin D activity (substrate peptide hydrolysis, MALDI-TOF); type: biochemical; conditions: pH 4.1, 37 degrees C., read-out: Cath D Ki
Chain of Cathepsin D (P07339 65-412, species assumed): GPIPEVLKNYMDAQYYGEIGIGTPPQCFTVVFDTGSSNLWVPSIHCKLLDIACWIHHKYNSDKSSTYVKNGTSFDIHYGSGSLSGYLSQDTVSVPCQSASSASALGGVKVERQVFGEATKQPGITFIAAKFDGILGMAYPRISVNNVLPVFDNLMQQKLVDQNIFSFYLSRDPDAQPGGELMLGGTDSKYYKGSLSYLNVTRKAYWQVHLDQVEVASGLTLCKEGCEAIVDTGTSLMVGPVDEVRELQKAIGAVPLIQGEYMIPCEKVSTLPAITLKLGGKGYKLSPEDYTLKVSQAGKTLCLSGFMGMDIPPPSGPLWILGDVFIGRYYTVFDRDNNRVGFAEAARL

memapsin 2 = memapsin 2 (Homo sapiens, UniProt P56817); assay: Inhibition of memapsin 2 beta-secretase activity toward fluorogenic substrate FS-2; type: biochemical; conditions: pH 4, 37° C., 20 minutes pre-incubation, read-out: M2 Ki
Chain of memapsin 2 (P56817 46-501): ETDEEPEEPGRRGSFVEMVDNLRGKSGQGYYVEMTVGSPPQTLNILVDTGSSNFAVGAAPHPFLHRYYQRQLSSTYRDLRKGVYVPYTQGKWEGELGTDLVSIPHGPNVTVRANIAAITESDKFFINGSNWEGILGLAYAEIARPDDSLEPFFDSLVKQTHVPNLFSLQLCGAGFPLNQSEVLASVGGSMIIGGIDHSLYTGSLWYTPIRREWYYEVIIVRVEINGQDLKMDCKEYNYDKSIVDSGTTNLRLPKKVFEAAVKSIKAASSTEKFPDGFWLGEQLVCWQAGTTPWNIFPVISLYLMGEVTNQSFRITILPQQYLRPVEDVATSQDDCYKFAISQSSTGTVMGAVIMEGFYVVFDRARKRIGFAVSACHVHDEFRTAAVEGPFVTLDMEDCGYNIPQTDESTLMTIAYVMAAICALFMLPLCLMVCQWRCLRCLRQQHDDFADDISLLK
Protocol: Potency of compounds were determined by measurement of their inhibition of memapsin 2 activity toward a fluorescent substrate. […] Briefly, assays were performed at pH 4, 37° C., by pre-incubation of memapsin 2 enzyme with compound for 20 minutes. Activity measure was initiated by addition of a fluorogenic substrate FS-2 (Bachem Americas, Torrance, Calif.). Fluorescent signal increase over time was measured as a rate of hydrolysis of the peptide substrate.

Aβ production = assay: Cellular Aβ IC50 determination (Aβ40 sandwich ELISA); type: cell-based; conditions: Cricetulus griseus, Chinese hamster ovary cells over-expressing human APP695 with London and Swedish mutations, 24 h
Protocol: The potency of compounds against memapsin 2 activity was determined in a cellular assay of Aβ production. […] Chinese hamster ovary cells that over-express human APP695 with the London and Swedish mutations were seeded in multi-well plates at 10% confluency. Compounds were dissolved in DMSO to concentrations near 1 mM, and diluted into culture media to a final concentration near 4 μM (final 0.4% DMSO). Compounds were diluted serially and applied to cells in multi-well plates 48 h after seeding. Incubation was continued in 5% CO2 at 37 degrees C. for 24 h. Aliquots were removed and assayed for Aβ40 content using a sandwich ELISA (BioSource International). Amount of Aβ40 over the range of concentration of compounds, relative to control incubations, were fit to a 4-parameter IC50 model.

| Compound | Ki (memapsin 1) | Ki (Cathepsin D) | Ki (memapsin 2) | IC50 (Aβ production) |
| --- | --- | --- | --- | --- |
| CCCN(CCC)C(=O)c1cccc(C(=O)N[C@@H](CC(C)C)[C@@H](O)C[C@@H](C)C(=O)NC(C(=O)NCC(C)C)C(C)C)c1 (stereo in doubt) [N1-(5-hydroxy-8-(1-(isobutylamino)-3-methyl-1-oxobutan-2-ylamino)-2,7-dimethyl-8-oxooctan-4-yl)-N3,N3-dipropylisophthalamide] | < 405 nM | < 405 nM | < 405 nM |  |
| Cc1nc(C(C)NC(=O)c2cc(C(=O)NC(CC(C)C)C(O)CC(C)C(=O)NC(C(=O)NC(C)C)C(C)C)cc(N(C)S(C)(=O)=O)c2)c(C)o1 (stereo not shown) [N1-(1-(2,5-dimethyloxazol-4-yl)ethyl)-N3-(5-hydroxy-8-(1-(isopropylamino)-3-methyl-1-oxobutan-2-ylamino)-2,7-dimethyl-8-oxooctan-4-yl)-5-(N-methylmethylsulfonamido)isophthalamide] |  | 405 to 2000 nM | < 405 nM | 10000 to 20000 nM |
| COc1ccc(C[C@H](NC(=O)c2cccc(C(=O)NCc3nc(C)cs3)c2)[C@@H](O)C[C@@H](C)C(=O)N[C@H](C(=O)NCC(C)C)C(C)C)cc1 [N1-(3-hydroxy-6-(1-(isobutylamino)-3-methyl-1-oxobutan-2-ylamino)-1-(4-methoxyphenyl)-5-methyl-6-oxohexan-2-yl)-N3-((4-methylthiazol-2-yl)methyl)isophthalamide] | 405 to 2000 nM | < 405 nM | 2000 to 5000 nM |  |
| CC(C)CNC(=O)C(NC(=O)C(C)CC(O)C(CC(C)C)NC(=O)c1cccc(C(=O)N(C)Cc2nccn2C)c1)C(C)C (stereo not shown) [N1-(5-hydroxy-8-(1-(isobutylamino)-3-methyl-1-oxobutan-2-ylamino)-2,7-dimethyl-8-oxooctan-4-yl)-N3-methyl-N3-((1-methyl-1H-imidazol-2-yl)methyl)isophthalamide] | > 5000 nM | 2000 to 5000 nM | > 5000 nM |  |
| Cc1nc(CN(C)C(=O)c2cccc(C(=O)NC(CC(C)C)C(O)CC(C)C(=O)NC(C(=O)NCC(C)C)C(C)C)c2)co1 (stereo not shown) [N1-(5-hydroxy-8-(1-(isobutylamino)-3-methyl-1-oxobutan-2-ylamino)-2,7-dimethyl-8-oxooctan-4-yl)-N3-methyl-N3-((2-methyloxazol-4-yl)methyl)isophthalamide] |  |  | < 405 nM | > 20000 nM |
| Cc1ccc(CN(C)C(=O)c2cccc(C(=O)NC(CC(C)C)C(O)CC(C)C(=O)NC(C(=O)NCC(C)C)C(C)C)c2)o1 (stereo not shown) [N1-(5-hydroxy-8-(1-(isobutylamino)-3-methyl-1-oxobutan-2-ylamino)-2,7-dimethyl-8-oxooctan-4-yl)-N3-methyl-N3-((5-methylfuran-2-yl)methyl)isophthalamide] |  |  | < 405 nM | > 20000 nM |
| CCCNC(=O)c1cc(C(=O)NC(CC(C)C)C(O)CC(C)C(=O)NC(C(=O)NC(C)C)C(C)C)cc(N(C)S(C)(=O)=O)c1 (stereo not shown) [N1-(5-hydroxy-8-(1-(isopropylamino)-3-methyl-1-oxobutan-2-ylamino)-2,7-dimethyl-8-oxooctan-4-yl)-5-(N-methylmethylsulfonamido)-N3-propylisophthalamide] |  | 405 to 2000 nM | < 405 nM | < 5000 nM |
| CC(C)CC(NC(=O)c1cc(C(=O)NC(C)c2ccccc2)cc(N(C)S(C)(=O)=O)c1)C(O)CC(C)C(=O)NC(C)C (stereo not shown) [N1-(5-hydroxy-8-(isopropylamino)-2,7-dimethyl-8-oxooctan-4-yl)-5-(N-methylmethylsulfonamido)-N3-(1-phenylethyl)isophthalamide] | 405 to 2000 nM |  | 405 to 2000 nM | > 20000 nM |
| CC(C)CC(NC(=O)c1cc(C(=O)NC(C)c2ccccc2)cc(N(C)S(C)(=O)=O)c1)C(O)CC(N)C(=O)NC(C(=O)NC(C)C)C(C)C (stereo not shown) [N1-(7-amino-5-hydroxy-8-(1-(isopropylamino)-3-methyl-1-oxobutan-2-ylamino)-2-methyl-8-oxooctan-4-yl)-5-(N-methylmethylsulfonamido)-N3-(1-phenylethyl)isophthalamide] |  |  | < 405 nM | > 20000 nM |
| CC(C)CC(NC(=O)c1cc(C(=O)NC(C)c2ccccc2)cc(N(C)S(C)(=O)=O)c1)C(O)CC(N=[N+]=[N-])C(=O)NC(C(=O)NC(C)C)C(C)C (stereo not shown) [N1-(7-azido-5-hydroxy-8-(1-(isopropylamino)-3-methyl-1-oxobutan-2-ylamino)-2-methyl-8-oxooctan-4-yl)-5-(N-methylmethylsulfonamido)-N3-(1-phenylethyl)isophthalamide] |  |  | < 405 nM | < 5000 nM |
| Cc1nc(CNC(=O)c2cc(C(=O)NC(CC(C)C)C(O)CC(C)C(=O)NC(C(=O)NC(C)C)C(C)C)cc(N(C)S(C)(=O)=O)c2)c(C)o1 (stereo not shown) [N1-((2,5-dimethyloxazol-4-yl)methyl)-N3-(5-hydroxy-8-(1-(isopropylamino)-3-methyl-1-oxobutan-2-ylamino)-2,7-dimethyl-8-oxooctan-4-yl)-5-(N-methylmethylsulfonamido)isophthalamide] |  | < 405 nM | < 405 nM | < 5000 nM |
| CC(C)CNC(=O)C(NC(=O)C(C)CC(O)C(CC(C)C)NC(=O)c1cccc(C(=O)N(C)Cc2ccccc2)c1)C(C)C (stereo not shown) [N1-benzyl-N3-(5-hydroxy-8-(1-(isobutylamino)-3-methyl-1-oxobutan-2-ylamino)-2,7-dimethyl-8-oxooctan-4-yl)-N1-methylisophthalamide] |  |  | < 405 nM | > 20000 nM |
| CC(C)CNC(=O)C(NC(=O)C(C)CC(O)C(CC(C)C)NC(=O)c1cc(C(=O)NC2CCCC2)cc(N(C)S(C)(=O)=O)c1)C(C)C (stereo not shown) [N1-cyclopentyl-N3-(5-hydroxy-8-(1-(isobutylamino)-3-methyl-1-oxobutan-2-ylamino)-2,7-dimethyl-8-oxooctan-4-yl)-5-(N-methylmethylsulfonamido)isophthalamide] |  |  | < 405 nM | < 5000 nM |
| CCN(Cc1nc(C)cs1)C(=O)c1cccc(C(=O)NC(CC(C)C)C(O)CC(C)C(=O)NC(C(=O)NCC(C)C)C(C)C)c1 (stereo not shown) [N1-ethyl-N3-(5-hydroxy-8-(1-(isobutylamino)-3-methyl-1-oxobutan-2-ylamino)-2,7-dimethyl-8-oxooctan-4-yl)-N1-((4-methylthiazol-2-yl)methyl)isophthalamide] |  |  | < 405 nM | < 5000 nM |
| Cc1csc(CNC(=O)c2cccc(C(=O)N[C@@H](CC(C)C)[C@@H](O)C[C@@H](C)C(=O)N[C@H](C(=O)NCC(C)C)C(C)C)n2)n1 [N2-(5-hydroxy-8-(1-(isobutylamino)-3-methyl-1-oxobutan-2-ylamino)-2,7-dimethyl-8-oxooctan-4-yl)-N6-((4-methylthiazol-2-yl)methyl)pyridine-2,6-dicarboxamide] |  | > 5000 nM | 2000 to 5000 nM | > 20000 nM |
| Cc1csc(CN(C)C(=O)c2cccc(C(=O)NC(CC(C)C)C(O)CC(C)C(=O)NC(C(=O)NCC(C)C)C(C)C)n2)n1 (stereo not shown) [N2-(5-hydroxy-8-(1-(isobutylamino)-3-methyl-1-oxobutan-2-ylamino)-2,7-dimethyl-8-oxooctan-4-yl)-N6-methyl-N6-((4-methylthiazol-2-yl)methyl)pyridine-2,6-dicarboxamide] |  |  | < 405 nM | > 20000 nM |
| Cc1csc(CN(C)C(=O)c2cncc(C(=O)NC(CC(C)C)C(O)CC(C)C(=O)NC(C(=O)NCC(C)C)C(C)C)c2)n1 (stereo not shown) [N3-(5-hydroxy-8-(1-(isobutylamino)-3-methyl-1-oxobutan-2-ylamino)-2,7-dimethyl-8-oxooctan-4-yl)-N5-methyl-N5-((4-methylthiazol-2-yl)methyl)pyridine-3,5-dicarboxamide] |  |  | < 405 nM | 5000 to 10000 nM |
| CC(C)CNC(=O)C(NC(=O)C(C)CC(O)C(CC(C)C)NC(=O)c1cncc(C(=O)N(C)Cc2cccnc2)c1)C(C)C (stereo not shown) [N3-(5-hydroxy-8-(1-(isobutylamino)-3-methyl-1-oxobutan-2-ylamino)-2,7-dimethyl-8-oxooctan-4-yl)-N5-methyl-N5-(pyridin-3-ylmethyl)pyridine-3,5-dicarboxamide] |  |  | 405 to 2000 nM | > 20000 nM |
| CC(C)CNC(=O)C(NC(=O)C(C)CC(O)C(CC(C)C)NC(=O)c1cc(C(=O)NC(C)c2ccccc2)cc(N(C)C(=O)OC2CCOC2)c1)C(C)C (stereo not shown) [tetrahydrofuran-3-yl 3-(5-hydroxy-8-(1-(isobutylamino)-3-methyl-1-oxobutan-2-ylamino)-2,7-dimethyl-8-oxooctan-4-ylcarbamoyl)-5-(1-phenylethylcarbamoyl)phenyl(methyl)carbamate] |  |  | 405 to 2000 nM | > 20000 nM |
